In PMC3875306 (Bioorganic & medicinal chemistry letters, 2013):

Tests used:
human mGlu1 = human mGlu1 (Homo sapiens, UniProt Q13255); assay: Calcium mobilization mGlu1 assay; settings: for LLE (ligand-lipophilicity efficiency): LLE = pIC50 - cLogP; for preference in mGlu1 NAM activity for the R-enantiomer versus the S-enantiomer: 15 vs 14, 17 vs 16
[1] = tested on: acoustic prepulse inhibition models; settings: cited from earlier work
rat model of anxiety = settings: cited from earlier work
rat models of addiction = settings: cited from earlier work
[2] = tested on: squirrel monkey models of addiction; settings: cited from earlier work
[3] = tested on: rat models of neuropathic pain; settings: cited from earlier work
[4] = tested on: rat models of post-operative pain; settings: cited from earlier work
in vivo = settings: male, Sprague-Dawley, rat, plasma, iv, 0.2 mg/kg
mGlu2–8 = settings: at 10 µM
rat mGlu1 = rat mGlu1 (Rattus norvegicus, UniProt P23385); assay: Functional cell based assay against rat mGlu1; settings: HEK 293A TREx cells expressing rat mGlu1
Sequence of rat mGlu1 (P23385 19-1199): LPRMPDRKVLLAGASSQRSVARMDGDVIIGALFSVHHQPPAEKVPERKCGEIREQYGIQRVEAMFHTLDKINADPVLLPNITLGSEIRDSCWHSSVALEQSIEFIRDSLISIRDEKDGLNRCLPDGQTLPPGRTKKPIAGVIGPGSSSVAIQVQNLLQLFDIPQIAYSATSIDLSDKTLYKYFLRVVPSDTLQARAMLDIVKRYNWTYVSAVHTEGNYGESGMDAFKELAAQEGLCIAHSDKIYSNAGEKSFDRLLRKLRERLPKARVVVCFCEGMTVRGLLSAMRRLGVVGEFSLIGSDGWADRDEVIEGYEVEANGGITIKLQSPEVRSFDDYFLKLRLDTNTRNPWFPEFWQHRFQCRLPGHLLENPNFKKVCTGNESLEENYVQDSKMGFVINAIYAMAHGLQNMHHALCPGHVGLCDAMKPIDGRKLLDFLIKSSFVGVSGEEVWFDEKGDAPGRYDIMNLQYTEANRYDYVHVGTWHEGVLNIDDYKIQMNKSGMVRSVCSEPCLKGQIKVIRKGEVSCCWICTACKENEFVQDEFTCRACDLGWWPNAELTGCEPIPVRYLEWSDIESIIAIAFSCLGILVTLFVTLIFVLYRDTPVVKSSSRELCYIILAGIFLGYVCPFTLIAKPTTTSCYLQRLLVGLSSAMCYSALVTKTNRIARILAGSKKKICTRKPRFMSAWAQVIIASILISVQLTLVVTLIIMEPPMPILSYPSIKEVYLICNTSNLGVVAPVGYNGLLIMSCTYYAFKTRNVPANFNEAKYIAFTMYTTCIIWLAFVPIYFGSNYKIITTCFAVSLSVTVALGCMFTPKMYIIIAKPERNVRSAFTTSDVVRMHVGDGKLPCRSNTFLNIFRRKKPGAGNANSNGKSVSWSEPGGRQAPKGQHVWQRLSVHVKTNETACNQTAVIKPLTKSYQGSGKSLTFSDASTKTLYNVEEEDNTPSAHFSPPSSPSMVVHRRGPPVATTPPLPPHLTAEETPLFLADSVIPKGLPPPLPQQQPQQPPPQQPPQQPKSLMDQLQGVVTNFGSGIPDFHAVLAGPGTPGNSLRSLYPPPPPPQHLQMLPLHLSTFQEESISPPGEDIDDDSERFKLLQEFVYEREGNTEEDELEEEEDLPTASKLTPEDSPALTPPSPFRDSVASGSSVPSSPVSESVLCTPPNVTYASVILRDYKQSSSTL

[5] = IV dosing, rat, in words
[6] = tested on: 68 clinically relevant GPCRs, ion channels, kinases, and transporters; assay: Radioligand binding assay panel; settings: 10 µM; significant = more than 50% inhibition of radioligand binding

Sequence of human mGlu1 (Q13255 19-1194): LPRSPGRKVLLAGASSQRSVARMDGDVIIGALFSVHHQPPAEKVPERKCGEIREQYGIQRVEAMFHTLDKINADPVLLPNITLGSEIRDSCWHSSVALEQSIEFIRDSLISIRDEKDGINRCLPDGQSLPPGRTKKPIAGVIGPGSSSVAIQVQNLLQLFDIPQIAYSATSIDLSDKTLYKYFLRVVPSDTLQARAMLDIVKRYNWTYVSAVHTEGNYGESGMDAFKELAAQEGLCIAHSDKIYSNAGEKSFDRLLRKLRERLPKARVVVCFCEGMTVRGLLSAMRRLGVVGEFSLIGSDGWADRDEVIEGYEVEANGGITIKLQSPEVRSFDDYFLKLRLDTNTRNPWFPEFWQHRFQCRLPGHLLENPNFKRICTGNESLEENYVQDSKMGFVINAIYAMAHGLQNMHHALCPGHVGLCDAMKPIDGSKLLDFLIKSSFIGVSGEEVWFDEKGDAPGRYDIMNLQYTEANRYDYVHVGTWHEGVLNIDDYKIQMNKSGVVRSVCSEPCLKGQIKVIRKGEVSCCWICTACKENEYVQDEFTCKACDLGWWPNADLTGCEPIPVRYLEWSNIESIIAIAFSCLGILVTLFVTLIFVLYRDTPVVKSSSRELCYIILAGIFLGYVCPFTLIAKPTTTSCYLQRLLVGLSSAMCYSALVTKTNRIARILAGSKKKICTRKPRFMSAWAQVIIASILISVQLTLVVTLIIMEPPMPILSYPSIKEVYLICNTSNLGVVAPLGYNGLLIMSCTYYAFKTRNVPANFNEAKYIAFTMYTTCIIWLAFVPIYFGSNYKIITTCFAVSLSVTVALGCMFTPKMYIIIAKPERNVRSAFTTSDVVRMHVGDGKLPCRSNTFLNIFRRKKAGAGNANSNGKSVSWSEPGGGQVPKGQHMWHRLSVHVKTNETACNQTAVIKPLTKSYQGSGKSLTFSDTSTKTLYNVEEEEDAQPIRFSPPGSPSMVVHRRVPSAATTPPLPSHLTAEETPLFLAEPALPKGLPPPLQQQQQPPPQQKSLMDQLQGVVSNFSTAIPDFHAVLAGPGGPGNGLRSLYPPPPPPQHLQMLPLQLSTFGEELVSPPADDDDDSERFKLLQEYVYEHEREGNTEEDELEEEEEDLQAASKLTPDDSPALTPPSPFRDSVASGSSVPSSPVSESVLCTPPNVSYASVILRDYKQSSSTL

C[C@@H]1CN(c2ccc(F)cn2)CCN1C(=O)C12CC3CC(CC(C3)C1)C2 [Compound 49]
LLE (ligand-lipophilicity efficiency) (human mGlu1): 1.73

C[C@@H]1CN(c2ccccc2C#N)CCN1C(=O)C12CC3CC(CC(C3)C1)C2 [Compound 46]
LLE (ligand-lipophilicity efficiency) (human mGlu1): 1.82

C[C@@H]1CN(c2ccncc2C#N)CCN1C(=O)C12CC3CC(CC(C3)C1)C2 [Compound 53]
LLE (ligand-lipophilicity efficiency) (human mGlu1): 2.89

C[C@@H]1CN(c2ncccc2C#N)CCN1C(=O)C12CC3CC(CC(C3)C1)C2 [Compound 51]
LLE (ligand-lipophilicity efficiency) (human mGlu1): 2.24

COC1CCC(C(=O)c2ccc3nc4c(cc3c2)CCCO4)CC1 (centres unmarked) [Compound 1]
antipsychotic activity, acoustic prepulse inhibition models, mice [1]: Antipsychotic activity | efficacy in a rat model of anxiety (rat model of anxiety): efficacious | efficacy in rat models of addiction (rat models of addiction): efficacious | efficacy in squirrel monkey models of addiction [2]: efficacious

CN(C)c1ccnc2sc3c(=O)n(N4CCCCCC4)cnc3c12 [Compound 2]
analgesia in rat models of neuropathic pain [3]: analgesic | analgesia in rat models of post-operative pain [4]: analgesic

C[C@@H]1CN(c2cccnc2C#N)CCN1C(=O)C12CC3CC(CC(C3)C1)C2 [Compound 54]
half-life (in vivo): ~1 h | activity against mGlu2–8 (mGlu2–8): inactive | activity at rat mGlu1 compared with human mGlu1 (rat mGlu1): little difference across species | clearance [5]: moderate to high | volume of distribution [5]: moderate | responses in radioligand binding panel of 68 targets [6]: no significant responses

C[C@@H]1CN(c2cccc(F)n2)CCN1C(=O)C12CC3CC(CC(C3)C1)C2 [Compound 48]
LLE (ligand-lipophilicity efficiency) (human mGlu1): 1.85

C[C@@H]1CN(C(=O)C23CC4CC(CC(C4)C2)C3)CCN1c1ccccn1 [Compound 17]
preference in mGlu1 NAM activity for the R-enantiomer versus the S-enantiomer (human mGlu1): sixfold

C[C@@H]1CN(c2ccccn2)CCN1C(=O)C12CC3CC(CC(C3)C1)C2 [Compound 15]
preference in mGlu1 NAM activity for the R-enantiomer versus the S-enantiomer (human mGlu1): 15 fold

C[C@@H]1CN(C(=O)C23CC4CC(CC(C4)C2)C3)CCN1c1ccncc1 [Compound 39]
mGlu1 activity at the top concentration tested (human mGlu1; 30 µM): no activity
